Measured values from patent publication US20130096067A1, “DROSOPHILA TUMOR STEM CELL MODEL AND USES THEREOF” (priority 2011, published 2013).
Read-outs that look alike come from different tables or passages of the source. Peptide text beside a SMILES is read from it. * marks the point of attachment. Cbz = O=C(OCc1ccccc1)*; CH2F = FC*

Test system: Raf-1^gof intestinal tumors
[1] = screen of 480 ICCB compounds in vials, compounds fed to flies with one-day old Raf-1^gof tumors, assessed three days later, esg-Gal4 luciferase
[2] = screen of 480 ICCB compounds in vials, compounds fed to flies with one-day old Raf-1^gof tumors, assessed three days later, esg-Gal4 luciferase, averaged from multiple wells
[3] = ICCB compounds fed in vials to flies with one-day old Raf-1^gof tumors, assessed three days later
[4] = ICCB compounds fed in vials to flies with one-day old Raf-1^gof tumors, assessed three days later, averaged from multiple wells
Wherever Fold (luciferase activity relative to DMSO controls) is given: test concentration or dose not given here.
Wherever Fold (luciferase activity, fold difference relative to DMSO controls) is given: test concentration or dose not given here.
Wherever Log2 (fold) (luciferase activity, log2 of the fold difference relative to DMSO controls) is given: test concentration or dose not given here.
Wherever Log2 (fold) of luciferase activity relative to DMSO controls is given: test concentration or dose not given here.

Compound | Log2 (fold) (luciferase activity, log2 of the fold difference relative to DMSO controls) [1] | Fold (luciferase activity, fold difference relative to DMSO controls) [2] | Log2 (fold) of luciferase activity relative to DMSO controls [3] | Fold (luciferase activity relative to DMSO controls) [4] [fold] | other results
CN(CCc1ccc(Cl)c(Cl)c1)CC(O)COc1ccc(NS(C)(=O)=O)cc1 (stereo not shown) [AM 92016] | −0.341 | 0.789 |  |  | 
Cl.NC(=S)NCCCC(N)C(=O)O [Thiocitrulline [L-Thiocitrulline HCl]] |  |  | −0.170 | 0.889 | 
CCCCCCCCCCCCC/C=C/[C@@H](O)[C@H](CO)N(C)C [N,N-DIMETHYLSPHINGOSINE] | −0.487 | 0.713 |  |  | 
CC(C)(C)c1cc(C=C(C#N)C#N)cc(C(C)(C)C)c1O [tyrphostin 9] |  |  | 0.671 | 1.592 | 
CC(C)Cn1c(=O)n(C)c(=O)c2[nH]cnc21 [IBMX] | −0.297 | 0.814 |  |  | 
CCOC(=O)C1=C(C)NC(=S)NC1c1cccc(O)c1 (stereo not shown) [Monastrol] | −0.607 | 0.656 |  |  | 
c1ccc(C2CC2)c(OCC2=NCCN2)c1 [CIRAZOLINE] |  |  | 0.121 | 1.088 | 
CCCCNC(=O)NS(=O)(=O)c1ccc(C)cc1 [TOLBUTAMIDE] | −0.494 | 0.710 |  |  | 
C[S+]([O-])c1ccc(-c2nc(-c3ccc(F)cc3)c(-c3ccncc3)[nH]2)cc1 (stereo not shown) [SB 203580] |  |  |  |  | Fold (luciferase activity relative to DMSO controls) (in vivo): 1.036 fold; Log2 (fold) of luciferase activity relative to DMSO controls (in vivo): 0.051
METHOXY VERAPAMIL |  |  | −0.069 | 0.954 | 
LY-171883 |  |  | 0.168 | 1.124 | 
CC[C@H](C)C(=O)O[C@H]1C[C@@H](C)C=C2C=C[C@H](C)[C@H](CC[C@@H]3C[C@@H](O)CC(=O)O3)[C@H]21 [Mevinolin (lovastatin)] | −0.512 | 0.701 |  |  | 
CCOC(=O)C(C)(C)Oc1ccc(Cl)cc1 [CLOFIBRATE] |  |  | 0.221 | 1.165 | 
OC[C@H]1NC[C@H](O)[C@@H](O)[C@@H]1O [deoxynorjrimycin(1)] |  |  | −0.154 | 0.899 | 
CCCCC/C=C\C/C=C\C/C=C\C/C=C\CCCC(=O)NCc1ccc(O)c(OC)c1 [Arvanil] | −0.482 | 0.716 |  |  | 
CC(=O)N[C@@H](CSCC=C(C)CCC=C(C)CCC=C(C)C)C(=O)O [acetyl (N)-s-farnesyl-1-cysteine] |  |  | −0.036 | 0.975 | 
CC(C)(Oc1ccc(CCNC(=O)c2ccc(Cl)cc2)cc1)C(=O)O [bezafibrate] |  |  | −0.211 | 0.864 | 
CCCCC[C@H](O)/C=C/[C@@H]1[C@@H](CC(=O)CCCCC(=O)O)[C@@H](O)C[C@H]1O [6-KETO-PROSTAGLANDIN F1a] | −0.435 | 0.740 |  |  | 
OCCN(CCO)c1nc(N2CCCCC2)c2nc(N(CCO)CCO)nc(N3CCCCC3)c2n1 [dipyridamole] | −0.431 | 0.742 |  |  | 
CC/C(=C(\c1ccccc1)c1ccc(OCCN(C)C)cc1)c1ccccc1 [tamoxifen, reference compound] | −1.562 | 0.339 |  |  | Fold (Table 3 summary of hits, Screen ICCB, luciferase relative to DMSO, fed three consecutive days in vials): 0.339 fold
C/C=C/C/C=C/CCC(=O)[C@H]1O[C@H]1C(N)=O [Cerulenin] | −0.474 | 0.720 |  |  | 

Compound | Log2 (fold) (luciferase activity, log2 of the fold difference relative to DMSO controls) [1] | Fold (luciferase activity, fold difference relative to DMSO controls) [2] | Log2 (fold) of luciferase activity relative to DMSO controls [3] | Fold (luciferase activity relative to DMSO controls) [4] [fold] | other results
COc1cccc(-c2cc(=O)c3ccccc3o2)c1N [PD 98059] | −0.338 | 0.791 |  |  | 
Nc1ncnc2c1ncn2C1CCCO1 (stereo not shown) [SQ22536] | −0.270 | 0.829 |  |  | 
CCCCCCCCCCCCCCCC(=O)OCC(COP(=O)(O)O)OC(=O)CCCCCCCCCCCCCCC (stereo not shown) [PHOSPHATIDIC ACID, DIPALMITOYL] | −0.288 | 0.819 |  |  | 
c1ccc(CN(CCN(Cc2ccccn2)Cc2ccccn2)Cc2ccccn2)nc1 [TPEN] | −0.717 | 0.608 |  |  | 
CCCC[C@@H](C=O)NC(=O)[C@H](CC(C)C)NC(=O)OCc1ccccc1 [calpeptin] | −0.235 | 0.849 |  |  | 
CCCCC/C=C\C/C=C\C/C=C\C/C=C\CCCC(=O)OC(CO)CO [2-ARACHIDONOYLGLYCEROL] |  |  | 0.119 | 1.086 | 
N#CC(C#N)=Cc1ccc(O)cc1 [Tyrphostin-8] |  |  |  |  | Fold (luciferase activity, fold difference relative to DMSO controls) (in vivo): 0.796; Log2 (fold) (luciferase activity, log2 of the fold difference relative to DMSO controls) (in vivo): −0.329
O=C(O)CCC/C=C\C[C@@H]1[C@@H](/C=C/[C@@H](O)COc2cccc(C(F)(F)F)c2)[C@H](O)C[C@@H]1O (racemic) [FLUPROSTENOL] |  |  | 0.058 | 1.041 | 
Nc1nc2c(nc(Br)n2[C@@H]2O[C@@H]3COP(=O)(O)O[C@H]3[C@H]2O)c(=O)[nH]1 [Bromo-cGMP [8-Bromo-cGMP]] |  |  | 0.021 | 1.015 | 
COC(=O)C[C@H](NC(=O)[C@H](C)NC(=O)[C@@H](NC(=O)OCc1ccccc1)C(C)C)C(=O)CF [zVAD-FMK] (Cbz-Val-Ala-Asp(OMe)-CH2F) | −0.597 | 0.661 |  |  | 
CCCCCCCCCCCCCCCC(=O)N[C@@H](COP(=O)(O)O)C(=O)O [L-NASPA] |  |  | 0.003 | 1.002 | 
calphostin C | −0.707 | 0.613 |  |  | 
CCCC[C@@H](C)/C=C(C)/C=C(\C)C(=O)NC1=C[C@@](O)(/C=C/C=C/C=C/C(=O)NC2=C(O)CCC2=O)[C@@H]2O[C@@H]2C1=O [manumycin A] | −0.233 | 0.851 |  |  | 
CCCCC/C=C\C/C=C\CCCCCCCC(=O)O [LINOLEIC ACID] |  |  | 0.024 | 1.017 | 
CCCCCCCCCCCCCCCCOCC(COP(=O)([O-])OCC[N+](C)(C)C)OC (stereo not shown) [1-HEXADECYL-2-METHYLGLYCERO-3 PC] |  |  | 0.060 | 1.042 | 
CCCCCCCCCCCCC/C=C/[C@@H](O)[C@H](CO)NC(C)=O [C2 CERAMIDE] | −0.493 | 0.711 |  |  | 
Cc1coc2c1C(=O)C(=O)c1c-2ccc2c1CCCC2(C)C [Tanshinone IIA] | −0.570 | 0.674 |  |  | 
Oc1c2ccccc2c2c3c(cccc13)N=N2 [SP-600125] |  |  | −0.100 | 0.933 | 
COCc1cc(O)c(O)c(O)c1-c1c(COC)cc(O)c(O)c1O [HBDDE] | −0.233 | 0.851 |  |  | 
CCCCCCCCCCCCCCC[C@@H](O)[C@@H](N)CO [DIHYDROSPHINGOSINE] |  |  | 0.000 | 1.000 | 
CCCCC[C@H](O)/C=C/[C@@H]1[C@@H](C/C=C\CCCC(=O)O)[C@@H](O)C[C@H]1O [PROSTAGLANDIN F2a] | −0.450 | 0.732 |  |  | 
